Experimental findings from patent publication US9233979B2, “Compounds that are ERK inhibitors” (Merck Sharp & Dohme Corp., priority 2012, dated 2016) are described below.

Usually IC50 stands for the concentration that gives 50% inhibition.

Sequence of phosphorylated active hERK2 enzyme (P28482 whole entry): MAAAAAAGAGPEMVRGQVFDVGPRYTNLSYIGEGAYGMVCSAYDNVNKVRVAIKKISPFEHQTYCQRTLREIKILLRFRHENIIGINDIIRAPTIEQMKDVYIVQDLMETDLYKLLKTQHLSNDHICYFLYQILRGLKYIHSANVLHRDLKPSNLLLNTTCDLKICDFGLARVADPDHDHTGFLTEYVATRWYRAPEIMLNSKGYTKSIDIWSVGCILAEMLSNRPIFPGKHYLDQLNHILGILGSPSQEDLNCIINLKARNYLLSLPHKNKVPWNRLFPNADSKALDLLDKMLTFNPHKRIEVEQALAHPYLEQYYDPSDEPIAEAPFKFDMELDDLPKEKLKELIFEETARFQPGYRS

The first assay concerns the target phosphorylated active hERK2 enzyme (Homo sapiens (Human), UniProt P28482). Description: Active Human ERK2 (hERK2) Activity Assay (IMAP-FP). To be noted: Table 5, 0.5 nM hERK2, 30 μM ATP, 10 point titration, read-out: AERK2 IC50. In kind it is biochemical. In short, it runs like this: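 IMAP fluorescence-polarization kinase assay: 0.5 nM activated hERK2 with 900 nM unlabeled plus 80 nM labeled peptide and 30 μM ATP, reacted 60 min. Quenched with IMAP beads in binding buffer with 24 mM NaCl; FP read after 60 min equilibration.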
`COC[C@@H](C)NC(=O)Nc1cc2[nH]nc(N3CCOCC3)c2cn1` [Example 11, 1-[(1R)-2-methoxy-1-methylethyl]-3-(3-morpholin-4-yl-1H-pyrazolo[4,3-c]pyridin-6-yl)urea]: the IC50 was 30 nM.

Regarding `COCCS(=O)(=O)Nc1n[nH]c2cc(NC(=O)N[C@H](C)c3ccccc3)ncc12` [Example 54, 2-methoxy-N-[6-({[(1R)-1-phenylethyl]carbamoyl}amino)-1H-pyrazolo[4,3-c]pyridin-3-yl]ethanesulfonamide], the concentration for half-maximal inhibition (IC50) came to 810 nM.

Take `COC[C@@H](NC(=O)Nc1cc2[nH]nc(N3CC(OC)C3)c2cn1)c1ccccc1` [Example 6, 1-[3-(3-methoxyazetidin-1-yl)-1H-pyrazolo[4,3-c]pyridin-6-yl]-3-[(1S)-2-methoxy-1-phenylethyl]urea]: the concentration for half-maximal inhibition (IC50) came to 2300 nM.

As for `CNc1n[nH]c2cc(NC(=O)N[C@H](C)c3ccccc3)ncc12` [Example 3, 1-[3-(methylamino)-1H-pyrazolo[4,3-c]pyridin-6-yl]-3-[(1R)-1-phenylethyl]urea], the half-inhibitory concentration (IC50) came to 4.87 nM.

Turning to `COCCNC(=O)Nc1cc2[nH]nc(N3CCC3)c2cn1` [Example 8, 1-(3-azetidin-1-yl-1H-pyrazolo[4,3-c]pyridin-6-yl)-3-(2-methoxyethyl)urea], the half-maximal inhibitory concentration (IC50) came out at 255 nM.

The assay is the same for the next values; noted with them: Table 6, 0.5 nM hERK2, 30 μM ATP, 10 point titration, read-out: AERK2 IC50.
For `CC(CC(C)(C)O)Nc1n[nH]c2cc(NC(=O)N[C@H](C)c3ccccc3)ncc12` (stereo partly drawn) [Example 191, 1-{3-[(3-hydroxy-1,3-dimethylbutyl)-amino]-1H-pyrazolo[4,3-c]-pyridin-6-yl}-3-[(1R)-1-phenylethyl]urea], the 50% inhibitory concentration (IC50) is 64.3 nM.

As to `C[C@@H](NC(=O)Nc1cc2[nH]nc(Nc3ccc(C#N)nc3)c2cn1)c1ccccc1` [Example 381, 1-{3-[(6-cyanopyridin-3-yl)amino]-1H-pyrazolo[4,3-c]-pyridin-6-yl}-3-[(1R)-1-phenylethyl]urea], the 50% inhibitory concentration (IC50) worked out at 367 nM.

With `CC(C)(O)[C@@H](NC(=O)Nc1cc2[nH]nc(N3CCc4ncsc4C3)c2cn1)c1ccccc1` [Example 124, 1-[3-(6,7-dihydro[1,3]thiazolo-[5,4-c]pyridin-5(4H)-yl)-1H-pyrazolo[4,3-c]pyridin-6-yl]-3-[(1S)-2-hydroxy-2-methyl-1-phenylpropyl]urea], the half-maximal inhibitory concentration (IC50) is 0.3 nM.

Turning to `CC(=O)N1CCc2nc(NC(=O)N[C@H](C)c3ccccc3)cc3[nH]nc1c23` [Example 140, (R)-1-(3-acetyl-1,3,4,5-tetrahydropyrazolo[3,4,5-de][1,6]naphthyridin-7-yl)-3-(1-phenylethyl)urea], the IC50 worked out at 111 nM.

As for `CC(CC1CCCCN1)Nc1n[nH]c2cc(NC(=O)N[C@H](C)c3ccccc3)ncc12` (stereo partly drawn) [Example 176, 1-{3-[(1-methyl-2-piperidin-2-ylethyl)amino]-1H-pyrazolo[4,3-c]pyridin-6-yl}-3-[(1R)-1-phenylethyl]urea], the IC50 was 38.2 nM.

Take `C[C@@H](NC(=O)Nc1cc2[nH]nc(NCC3CCCOC3)c2cn1)c1ccccc1` (stereo partly drawn) [Example 167, 1-[(1R)-1-phenylethyl]-3-{3-[(tetrahydro-2H-pyran-3-yl-methyl)amino]-1H-pyrazolo[4,3-c]pyridin-6-yl}urea]: the IC50 came to 4.2 nM.

As for `COC(=O)Nc1n[nH]c2cc(NC(=O)N[C@H](C)c3cccc(F)c3)ncc12` [Example 299, methyl [6-({[(1R)-1-(3-fluorophenyl)-ethyl]carbamoyl}-amino)-1H-pyrazolo[4,3-c]-pyridin-3-yl}-carbamate], the IC50 came to 1.6 nM.

As to `Nc1n[nH]c2cc(NC(=O)N[C@@H](c3ccccc3)[C@H]3CCCO3)ncc12` [Example 153, 1-(3-amino-1H-pyrazolo[4,3-c]pyridin-6-yl)-3-{(S)-phenyl[(2R)-tetrahydrofuran-2-yl]methyl}urea], the IC50 was 0.7 nM.

On to `C[C@@H](NC(=O)Nc1cc2[nH]nc(NC3CC3)c2cn1)c1ccccc1` [Example 330, 1-[3-(cyclopropyl-amino)-1H-pyrazolo[4,3-c]pyridin-6-yl]-3-[(1R)-1-phenylethyl]urea], for which the IC50 is 0.9 nM.

Turning to `C[C@H](Nc1n[nH]c2cc(NC(=O)N[C@H](C)c3ccccc3)ncc12)C(F)F` [Example 354, 1-(3-{[(1S)-2,2-difluoro-1-methyl-ethyl]amino}-1H-pyrazolo[4,3-c]-pyridin-6-yl)-3-[(1R)-1-phenylethyl]urea], the concentration for half-maximal inhibition (IC50) came out at 2.2 nM.

Take `CC(=O)Nc1n[nH]c2cc(NC(=O)N[C@H](C)c3ccccc3)nc(C)c12` [Example 337, (R)—N-(4-methyl-6-(3-(1-phenylethyl)ureido)-1H-pyrazolo[4,3-c]pyridin-3-yl)acetamide]: the half-inhibitory concentration (IC50) was found to be 127 nM.

In the case of `CC(CCl)Nc1n[nH]c2cc(NC(=O)N[C@H](C)c3ccccc3)ncc12` (stereo partly drawn) [Example 197, 1-{3-[(2-chloro-1-methylethyl)amino]-1H-pyrazolo[4,3-c]pyridin-6-yl}-3-[(1R)-1-phenylethyl]urea], the IC50 turned out to be 3.1 nM.

In the case of `C[C@@H](NC(=O)Nc1cc2[nH]nc(NC(=O)N3C[C@H]4COC[C@H]4C3)c2cn1)c1ccc(F)cc1` [Example 458, (3aR,6aS)-N-(6-(3-((R)-1-(4-fluorophenyl)ethyl)ureido)-1H-pyrazolo[4,3-c]pyridin-3-yl)tetrahydro-1H-furo[3,4-c]pyrrole-5(3H)-carboxamide], the half-inhibitory concentration (IC50) amounted to 14.3 nM.

With `CNc1n[nH]c2cc(NC(=O)N[C@H](C)c3ccc(Cl)cc3)ncc12` [Example 343, 1-[(1R)-1-(4-chlorophenyl)ethyl]-3-[3-(methyl-amino)-1H-pyrazolo[4,3-c]-pyridin-6-yl]urea], the IC50 was 7.8 nM.

Regarding `C[C@@H](NC(=O)Nc1cc2[nH]nc(NC(=O)C(C)(C)C)c2cn1)c1ccccc1` [Example 215, 2,2-dimethyl-N-[6-({[(1R)-1-phenylethyl]-carbamoyl}amino)-1H-pyrazolo[4,3-c]pyridin-3-yl]-propanamide], the IC50 amounted to 3.9 nM.

Turning to `C[C@@H](NC(=O)Nc1cc2[nH]nc(NC(=O)OC3CCOC3)c2cn1)c1ccc(F)cc1` (stereo partly drawn) [Example 401, tetrahydrofuran-3-yl [6-({[(1R)-1-(4-fluorophenyl)ethyl]carbamoyl}amino)-1H-pyrazolo[4,3-c]pyridin-3-yl]-carbamate], the IC50 was 15.3 nM.

With `C[C@@H](O)[C@@H](NC(=O)Nc1cc2[nH]nc(N3CCC3)c2cn1)c1ccc(F)cc1` [Example 105, 1-(3-azetidin-1-yl-1H-pyrazolo[4,3-c]pyridin-6-yl)-3-[(1S,2R)-1-(4-fluorophenyl)-2-hydroxypropyl]urea], the IC50 stood at 2.8 nM.

On to `C[C@@H](NC(=O)Nc1cc2[nH]nc(NCc3ccncc3)c2cn1)c1ccccc1` [Example 179, 1-[(1R)-1-phenylethyl]-3-{3-[(pyridin-4-yl-methyl)amino]-1H-pyrazolo[4,3-c]-pyridin-6-yl}urea], for which the 50% inhibitory concentration (IC50) came out at 1 nM.

For `COC(=O)N[C@H](C(=O)Nc1n[nH]c2cc(NC(=O)N[C@H](C)c3ccc(F)cc3)ncc12)C(C)C` [Example 66, methyl [(1S)-1-{[6-({[(1R)-1-(4-fluoro-phenyl)ethyl]-carbamoyl}-amino)-1H-pyrazolo[4,3-c]-pyridin-3-yl]-carbamoyl}-2-methylpropyl]-carbamate], the IC50 came to 31.6 nM.

For `Nc1n[nH]c2cc(NC(=O)N[C@H](c3ccccc3)[C@H]3CCCO3)ncc12` [Example 154, 1-(3-amino-1H-pyrazolo[4,3-c]pyridin-6-yl)-3-{(R)-phenyl[(2R)-tetrahydrofuran-2-yl]methyl}urea], the IC50 came to 435 nM.

Regarding `CCOC(=O)Nc1n[nH]c2cc(NC(=O)N[C@H](C)c3ccccc3)ncc12` [Example 315, (R)-ethyl(6-(3-(1-phenylethyl)ureido)-1H-pyrazolo[4,3-c]pyridin-3-yl)carbamate], the IC50 stood at 10 nM.

As to `COC[C@H](NC(=O)Nc1ncc2c(NC(C)C)n[nH]c2c1F)c1ccccc1` [Example 323, 1-{7-fluoro-3-[(1-methylethyl)amino]-1H-pyrazolo[4,3-c]pyridin-6-yl}-3-[(1R)-2-methoxy-1-phenylethyl]urea], the IC50 amounted to 4.1 nM.

Regarding `Nc1n[nH]c2c(F)c(NC(=O)N[C@H](COC(F)F)c3ccccc3)ncc12` [Example 362, 1-(3-amino-7-fluoro-1H-pyrazolo[4,3-c]-pyridin-6-yl)-3-[(1S)-2-(difluoromethoxy)-1-phenylethyl]urea], the IC50 turned out to be 1.3 nM.

Consider `C[C@@H]1CCN1c1n[nH]c2cc(NC(=O)N[C@H](C)c3ccccc3)ncc12` [Example 91, 1-{3-[(2R)-2-methylazetidin-1-yl]-1H-pyrazolo[4,3-c]-pyridin-6-yl}-3-[(1R)-1-phenylethyl]-urea], for which the IC50 was 52 nM.

On to `CC(C)(O)[C@@H](NC(=O)Nc1cc2[nH]nc(N3CCOC(C(F)(F)F)C3)c2cn1)c1ccccc1` (stereo partly drawn) [Example 99, 1-[(1S)-2-hydroxy-2-methyl-1-phenylpropyl]-3-{3-[2-(trifluoromethyl)-morpholin-4-yl]-1H-pyrazolo[4,3-c]-pyridin-6-yl}urea], for which the half-maximal inhibitory concentration (IC50) is 0.6 nM.

`C[C@@H](NC(=O)Nc1cc2[nH]nc(NCc3ccccc3)c2cn1)c1ccccc1` [Example 178, 1-[3-(benzyl-amino)-1H-pyrazolo[4,3-c]-pyridin-6-yl]-3-1-[(1R)-1-phenylethyl]urea]: the IC50 worked out at 4.6 nM.

Turning to `COC(=O)Nc1n[nH]c2cc(NC(=O)N[C@H](C)c3ccc(F)cc3)ncc12` [Example 321, (R)-methyl (6-(3-(1-(4-fluorophenyl)ethyl)ureido)-1H-pyrazolo[4,3-c]pyridin-3-yl)carbamate], the half-maximal inhibitory concentration (IC50) is 2.6 nM.

Take `CCNc1n[nH]c2cc(NC(=O)NCc3c(C)cccc3Cl)ncc12` [Example 227, 1-(2-chloro-6-methylbenzyl)-3-[3-(ethylamino)-1H-pyrazolo[4,3-c]pyridin-6-yl]urea]: the IC50 was 11.3 nM.

Consider `CCNc1n[nH]c2cc(NC(=O)N[C@@H]3CCC[C@H]3OC)ncc12` [Example 411, 1-[3-(ethylamino)-1H-pyrazolo[4,3-c]pyridin-6-yl]-3-[(1R,2R)-2-methoxy-cyclopentyl]urea], for which the 50% inhibitory concentration (IC50) was determined as 99.3 nM.
